This note sets out measurements from patent US20230391770A1, “METTL3 INHIBITORY COMPOUNDS” (Storm Therapeutics Limited, priority 2020, published 2023).

One assay deals with METTL3/14 (Homo sapiens (Human), UniProt Q86U44). The experiment in a line: METTL3/14 methyltransferase biochemical assay (RapidFire mass spectrometry, METTL3_14 RFMS). As to the method: The enzymatic assay was established to determine IC50 values for inhibition of RNA methyltransferase activity. The enzyme used was full-length his-tagged METTL3 co-expressed with full length FLAG-tagged METTL14 in a baculovirus expression system. […] The reaction was incubated for further 60 minutes at room temperature, and then quenched by the addition of 40 μL 7.5% TCA with two internal product standards (D4-SAH and ^13C10-SAH). After termination, plates were sealed, centrifuged and stored at 4° C. until analysis. […] RNA methyltransferase activity was measured label free using the RapidFireTM mass spectrometry (RF/MS) platform. Stopped and stable assay plates were analyzed on the Agilent RF300 integrated autosampler/solid-phase extraction (SPE) system coupled to an ABSciex 4000 mass spectrometer for the generation of the product S-adenosyl homocysteine (SAH) and normalized to the ratio of signal of the two internal product standards, respectively. Solvent A was water containing 0.1% (v/v) TCA. Solvent B was acetonitrile/0.1% ammonium acetate (8:2, v/v).

For a further assay, the system named is Caov-3 cells. Kind of assay: Caov3 CTG proliferation assay (CellTiter-Glo). It is filed as cell-based. Particulars: Homo sapiens, 120 hours treatment, 30 μM top concentration. The method, then:
Cell treatment and cell growth assessment: 18 hours post-seeding in white 384-Viewplate (6007480, PerkinElmer) at 1500 cells/well, Caov3 cells were treated for 120 hours with compounds inhibiting the METTL3/14 activity (10 serial semi-log dilutions, 30 μM as top concentration). Upon treatment, Coav-3 cells were incubated for 10 min at RT with the CellTiter-Glo reagent (G7571, Promega). Measurement of the luminescence signal was performed on a microplate reader (Ensight, PerkinElmer).
(Cellular ATP, detected with luciferase, serves as a proxy for viable cell number.)

The subject of the next assay is KASUMI-1 cells. Kind of assay: Kasumi cell assay (CellTiter-Glo cell growth). It is filed as cell-based. Conditions: Homo sapiens, 120 hours treatment, 30 μM top concentration. As to the method: Cell culture: KASUMI-1 cells (ACC20, Leibniz-Institut DSMZ Deutsche Sammlung von Mikroorganismen und Zellkulturen GmbH) were grown in RPMI 1640 (31870-025, Gibco) supplemented with 20% fetal bovine serum (F1524, Gibco), 1 mM sodium pyruvate (11360-039, Gibco) and 2 mM Glutamax (35050-038, Gibco) in a 5% CO2 humidified incubator at 37° C.
Cell treatment and cell growth assessment: KASUMI-1 […] were seeded in ultra-low attachment 384-well culture plate (MS-9384WZ, SBio) at a final concentration of 250,000 cells/ml (35 μL/well) and treated for 120 hours with compounds inhibiting the METTL3/14 activity (10 serial semi-log dilutions, 30 μM as top concentration). Upon treatment, Kasumi1 cells were incubated for 10 min at RT with the CellTiter-Glo reagent (G7571, Promega). Measurement of the luminescence signal was performed on a microplate reader (Ensight, PerkinElmer).

Chain of METTL3/14 (Q86U44 whole entry): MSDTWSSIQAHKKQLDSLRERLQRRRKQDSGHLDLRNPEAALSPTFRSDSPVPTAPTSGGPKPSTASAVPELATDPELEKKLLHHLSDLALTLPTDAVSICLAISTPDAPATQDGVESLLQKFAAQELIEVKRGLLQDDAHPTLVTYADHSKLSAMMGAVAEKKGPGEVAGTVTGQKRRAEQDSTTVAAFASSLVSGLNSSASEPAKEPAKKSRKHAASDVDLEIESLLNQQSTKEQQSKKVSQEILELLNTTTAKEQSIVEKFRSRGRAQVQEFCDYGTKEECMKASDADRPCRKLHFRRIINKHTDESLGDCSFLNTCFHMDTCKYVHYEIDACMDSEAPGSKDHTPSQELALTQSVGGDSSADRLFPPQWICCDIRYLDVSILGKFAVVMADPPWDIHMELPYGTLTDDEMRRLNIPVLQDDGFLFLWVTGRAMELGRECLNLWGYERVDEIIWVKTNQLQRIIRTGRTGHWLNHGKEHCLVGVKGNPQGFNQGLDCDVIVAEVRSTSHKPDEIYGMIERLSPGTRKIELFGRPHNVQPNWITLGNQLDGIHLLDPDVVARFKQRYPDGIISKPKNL
Chain of METTL3/14 (Q9HCE5 whole entry partner): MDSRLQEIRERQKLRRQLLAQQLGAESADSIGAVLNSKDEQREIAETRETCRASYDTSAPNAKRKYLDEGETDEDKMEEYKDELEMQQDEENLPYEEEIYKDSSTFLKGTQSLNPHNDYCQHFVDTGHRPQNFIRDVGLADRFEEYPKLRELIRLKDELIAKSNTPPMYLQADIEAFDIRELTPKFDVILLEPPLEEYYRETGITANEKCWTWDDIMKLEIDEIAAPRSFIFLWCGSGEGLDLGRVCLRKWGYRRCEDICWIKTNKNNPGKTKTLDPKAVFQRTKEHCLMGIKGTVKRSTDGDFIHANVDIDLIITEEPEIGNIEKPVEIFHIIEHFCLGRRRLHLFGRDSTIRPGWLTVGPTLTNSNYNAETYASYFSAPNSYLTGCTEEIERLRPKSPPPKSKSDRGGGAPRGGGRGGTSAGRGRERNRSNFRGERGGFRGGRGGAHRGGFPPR

For the compound `O=C(NCc1cn2cc(CNCC34CC(F)(C3)C4)ccc2n1)c1cc(=O)n2ccsc2n1` [Example 19, N-[(6-{[({3-fluorobicyclo[1.1.1]pentan-1-yl}methyl)amino]methyl}imidazo[1,2-a]pyridin-2-yl)methyl]-5-oxo-5H-[1,3]thiazolo[3,2-a]pyrimidine-7-carboxamide], the IC50 is 6.1 nM against METTL3/14, 364 nM in the assay on Caov-3 cells and 1360 nM with KASUMI-1 cells.
`COc1cc(-c2cn(Cc3cn4cc(CNCC5CCC5)ccc4n3)nn2)c2cncn2c1` [Example 22, (cyclobutylmethyl)({2-[(4-{6-methoxyimidazo[1,5-a]pyridin-8-yl}-1H-1,2,3-triazol-1-yl)methyl]imidazo[1,2-a]pyridin-6-yl}methyl)amine]: the values for the IC50 against METTL3/14, in the assay with Caov-3 cells and in the assay with KASUMI-1 cells were 6.1 nM, 305 nM and 1150 nM, respectively.
In the case of `c1cc(-c2cn(Cc3cn4cc(CNCC5CCC5)ccc4n3)nn2)c2cncn2c1` [Example 23, (cyclobutylmethyl)({2-[(4-{imidazo[1,5-a]pyridin-8-yl}-1H-1,2,3-triazol-1-yl)methyl]imidazo[1,2-a]pyridin-6-yl}methyl)amine], the IC50 was determined as 6.1 nM at METTL3/14, 888 nM with Caov-3 cells and 2940 nM in the assay on KASUMI-1 cells.
With `Fc1ncn2cccc(-c3cn(Cc4cn5cc(CNCC6CCC6)ccc5n4)nn3)c12` [Example 25, (cyclobutylmethyl)({2-[(4-{1-fluoroimidazo[1,5-a]pyridin-8-yl}-1H-1,2,3-triazol-1-yl)methyl]imidazo[1,2-a]pyridin-6-yl}methyl)amine], the IC50 against METTL3/14 stood at 15.8 nM; with Caov-3 cells it was 2720 nM; with KASUMI-1 cells, 4820 nM.
Take `COc1cc(-c2cn(Cc3cn4cc(CNCC56CC(F)(C5)C6)ccc4n3)nn2)c2cncn2c1` [Example 26, ({3-fluorobicyclo[1.1.1]pentan-1-yl}methyl)({2-[(4-{6-methoxyimidazo[1,5-a]pyridin-8-yl}-1H-1,2,3-triazol-1-yl)methyl]imidazo[1,2-a]pyridin-6-yl}methyl)amine]: the IC50 against METTL3/14 amounted to 6.1 nM; in the assay with Caov-3 cells it was 110 nM; in the assay with KASUMI-1 cells, 449 nM.
For the compound `COc1cc(-c2cn(Cc3cn4cc(CNCC56CC(C5)C6)ccc4n3)nn2)c2cncn2c1` [Example 28, ({bicyclo[1.1.1]pentan-1-yl}methyl)({2-[(4-{6-methoxyimidazo[1,5-a]pyridin-8-yl}-1H-1,2,3-triazol-1-yl)methyl]imidazo[1,2-a]pyridin-6-yl}methyl)amine], the IC50 at METTL3/14 stood at 6.1 nM; with Caov-3 cells it was 102 nM; with KASUMI-1 cells, 316 nM.
For `c1cc(-c2cn(Cc3cn4cc(CN5CC6(CCC6)C5)ccc4n3)nn2)c2cncn2c1` [Example 29, 2-({2-[(4-{imidazo[1,5-a]pyridin-8-yl}-1H-1,2,3-triazol-1-yl)methyl]imidazo[1,2-a]pyridin-6-yl}methyl)-2-azaspiro[3.3]heptane] the same measures were 6.5 nM, 473 nM and 1570 nM.
`COc1cc(-c2cn(Cc3cn4cc(CN5CC6(CCC6)C5)ccc4n3)nn2)c2cncn2c1` [Example 30, 2-({2-[(4-{6-methoxyimidazo[1,5-a]pyridin-8-yl}-1H-1,2,3-triazol-1-yl)methyl]imidazo[1,2-a]pyridin-6-yl}methyl)-2-azaspiro[3.3]heptane]: the IC50 worked out at 6.1 nM against METTL3/14, 598 nM in the assay on Caov-3 cells and 2080 nM with KASUMI-1 cells.
For `COc1cnc(C#N)c(-c2cn(Cc3cn4cc(CN5CCC(C)(C)CC5)ccc4n3)nn2)c1` [Example 39, 3-[1-({6-[(4,4-dimethylpiperidin-1-yl)methyl]imidazo[1,2-a]pyridin-2-yl}methyl)-1H-1,2,3-triazol-4-yl]-5-methoxypyridine-2-carbonitrile], the IC50 amounted to 5530 nM in the assay with Caov-3 cells and 6210 nM in the assay with KASUMI-1 cells.
Take `COc1cnc(C#N)c(-c2cn(Cc3cn4cc(CNCC56CC(F)(C5)C6)ccc4n3)nn2)c1` [Example 41, 3-{1-[(6-{[({3-fluorobicyclo[1.1.1]pentan-1-yl}methyl)amino]methyl}imidazo[1,2-a]pyridin-2-yl)methyl]-1H-1,2,3-triazol-4-yl}-5-methoxypyridine-2-carbonitrile]: the IC50 at METTL3/14 is 16 nM; with Caov-3 cells, 4070 nM; with KASUMI-1 cells, 2660 nM.
For `COc1cncc(-c2cn(Cc3cn4cc(CNCC56CC(F)(C5)C6)ccc4n3)nn2)n1` [Example 44, ({3-fluorobicyclo[1.1.1]pentan-1-yl}methyl)[(2-{[4-(6-methoxypyrazin-2-yl)-1H-1,2,3-triazol-1-yl]methyl}imidazo[1,2-a]pyridin-6-yl)methyl]amine], the IC50 in the assay on Caov-3 cells was determined as 2440 nM; in the assay on KASUMI-1 cells, 1990 nM.
For the compound `COc1cncc(-c2cn(Cc3cn4cc(CNCC56CC(F)(C5)C6)ccc4n3)nn2)c1` [Example 45, ({3-fluorobicyclo[1.1.1]pentan-1-yl}methyl)[(2-{[4-(5-methoxypyridin-3-yl)-1H-1,2,3-triazol-1-yl]methyl}imidazo[1,2-a]pyridin-6-yl)methyl]amine], the IC50 was determined as 918 nM in the assay with Caov-3 cells and 2520 nM with KASUMI-1 cells.
Consider `COc1ccncc1-c1cn(Cc2cn3cc(CNCC45CC(F)(C4)C5)ccc3n2)nn1` [Example 47, ({3-fluorobicyclo[1.1.1]pentan-1-yl}methyl)[(2-{[4-(4-methoxypyridin-3-yl)-1H-1,2,3-triazol-1-yl]methyl}imidazo[1,2-a]pyridin-6-yl)methyl]amine], for which the IC50 is 13 nM against METTL3/14, 1380 nM in the assay with Caov-3 cells and 4450 nM in the assay with KASUMI-1 cells.
For `N#Cc1ncc(N2CCOCC2)cc1-c1cn(Cc2cn3cc(CNCC45CC(F)(C4)C5)ccc3n2)nn1` [Example 51, 3-{1-[(6-{[({3-fluorobicyclo[1.1.1]pentan-1-yl}methyl)amino]methyl}imidazo[1,2-a]pyridin-2-yl)methyl]-1H-1,2,3-triazol-4-yl}-5-(morpholin-4-yl)pyridine-2-carbonitrile], the IC50 amounted to 6 nM on METTL3/14, 1330 nM with Caov-3 cells and 1860 nM in the assay on KASUMI-1 cells.
`FC12CC(CNCc3ccc4nc(Cn5cc(-c6cncc(N7CCOCC7)c6)nn5)cn4c3)(C1)C2` [Example 52, ({3-fluorobicyclo[1.1.1]pentan-1-yl}methyl)({[2-({4-[5-(morpholin-4-yl)pyridin-3-yl]-1H-1,2,3-triazol-1-yl}methyl)imidazo[1,2-a]pyridin-6-yl]methyl})amine]: the IC50 came out at 6 nM against METTL3/14, 540 nM in the assay with Caov-3 cells and 1610 nM in the assay with KASUMI-1 cells.

One may read the IC50 as the concentration that gives 50% inhibition. Lower therefore signals inhibition by little substance.
